pIC50: −log10 of the molar value.
Tests used:
[1] = target: T1, Short transient receptor potential channel 4 (Mus musculus, UniProt Q9QUQ5); assay: Inhibition of mouse TRPC4 by FLIPR assay
T1 sequence (Q9QUQ5 whole entry): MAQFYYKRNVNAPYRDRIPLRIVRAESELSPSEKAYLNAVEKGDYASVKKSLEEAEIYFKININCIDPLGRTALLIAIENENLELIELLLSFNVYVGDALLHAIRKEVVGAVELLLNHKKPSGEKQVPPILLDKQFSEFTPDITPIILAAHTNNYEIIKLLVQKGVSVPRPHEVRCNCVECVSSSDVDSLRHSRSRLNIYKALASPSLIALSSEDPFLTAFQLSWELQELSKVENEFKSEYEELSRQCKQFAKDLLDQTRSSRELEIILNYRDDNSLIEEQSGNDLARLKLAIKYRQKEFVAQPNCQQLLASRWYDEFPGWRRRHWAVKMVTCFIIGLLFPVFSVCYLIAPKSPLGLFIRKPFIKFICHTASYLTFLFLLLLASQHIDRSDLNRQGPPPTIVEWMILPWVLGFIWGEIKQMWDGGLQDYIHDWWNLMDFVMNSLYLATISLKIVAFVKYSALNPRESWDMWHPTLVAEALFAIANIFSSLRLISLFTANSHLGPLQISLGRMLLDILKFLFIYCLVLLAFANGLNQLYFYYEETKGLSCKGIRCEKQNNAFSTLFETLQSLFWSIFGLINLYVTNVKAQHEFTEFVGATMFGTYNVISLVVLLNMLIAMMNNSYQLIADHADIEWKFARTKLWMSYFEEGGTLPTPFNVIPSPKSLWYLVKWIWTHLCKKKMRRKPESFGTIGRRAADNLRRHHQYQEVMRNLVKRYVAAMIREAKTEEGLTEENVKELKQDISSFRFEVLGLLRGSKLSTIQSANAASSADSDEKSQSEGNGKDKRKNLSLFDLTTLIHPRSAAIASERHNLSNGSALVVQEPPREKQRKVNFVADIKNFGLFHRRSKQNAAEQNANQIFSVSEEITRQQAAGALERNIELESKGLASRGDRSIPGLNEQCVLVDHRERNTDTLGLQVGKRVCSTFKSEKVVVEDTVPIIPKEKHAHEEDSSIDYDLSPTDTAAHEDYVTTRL

[2] = target: Transient receptor potential cation channel subfamily V member 1 (Rattus norvegicus, UniProt O35433); assay: Inhibition of CFP-tagged rat TRPV1 expressed in HEK293 cells assessed as reduction in calcium level by fluo-4 dye based fluorescence assay; format: cell-based
[3] = target: T1, Short transient receptor potential channel 4; assay: Inhibition of YFP-tagged mouse TRPC4 beta expressed in thapsigargin treated HEK293 cells co-expressing M3 receptor assessed as reduction in carbachol-induced calcium level by fluo-4 dye based fluorescence assay; format: cell-based
[4] = Selectivity ratio of IC50 for YFP-tagged human TRPC3 expressed in thapsigargin treated HEK293 cells to IC50 for mouse TRPC5 expressed in thapsigargin treated HEK293/TREx cells; format: cell-based
[5] = target: Transient receptor potential cation channel subfamily V member 2 (Rattus norvegicus, UniProt Q9WUD2); assay: Inhibition of YFP-tagged rat TRPV2 expressed in HEK293 cells assessed as reduction in calcium level by fluo-4 dye based fluorescence assay; format: cell-based
[6] = Selectivity ratio of IC50 for YFP-tagged human TRPC6 expressed in thapsigargin treated HEK293 cells to IC50 for mouse TRPC5 expressed in thapsigargin treated HEK293/TREx cells; format: cell-based

Sequence of Transient receptor potential cation channel subfamily V member 2 (Q9WUD2 whole entry): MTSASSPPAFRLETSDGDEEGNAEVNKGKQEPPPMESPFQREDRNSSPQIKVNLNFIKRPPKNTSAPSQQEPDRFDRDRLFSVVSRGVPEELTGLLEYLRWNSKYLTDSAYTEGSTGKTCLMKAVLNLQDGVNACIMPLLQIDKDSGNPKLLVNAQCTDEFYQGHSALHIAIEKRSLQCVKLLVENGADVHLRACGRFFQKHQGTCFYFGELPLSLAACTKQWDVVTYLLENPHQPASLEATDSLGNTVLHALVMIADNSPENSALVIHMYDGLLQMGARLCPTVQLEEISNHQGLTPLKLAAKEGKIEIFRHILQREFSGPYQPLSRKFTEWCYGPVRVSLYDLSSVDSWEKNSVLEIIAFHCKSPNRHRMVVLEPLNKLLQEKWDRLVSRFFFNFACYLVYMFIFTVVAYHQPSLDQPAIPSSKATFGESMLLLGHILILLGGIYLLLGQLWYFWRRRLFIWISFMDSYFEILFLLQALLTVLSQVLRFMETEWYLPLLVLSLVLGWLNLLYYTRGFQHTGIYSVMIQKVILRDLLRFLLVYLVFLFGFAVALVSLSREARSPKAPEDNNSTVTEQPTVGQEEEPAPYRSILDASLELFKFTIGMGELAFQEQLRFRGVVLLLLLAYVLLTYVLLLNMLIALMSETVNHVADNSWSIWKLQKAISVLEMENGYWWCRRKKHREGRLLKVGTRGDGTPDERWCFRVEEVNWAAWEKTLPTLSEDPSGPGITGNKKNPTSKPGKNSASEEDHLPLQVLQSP
Sequence of Transient receptor potential cation channel subfamily V member 1 (O35433 whole entry): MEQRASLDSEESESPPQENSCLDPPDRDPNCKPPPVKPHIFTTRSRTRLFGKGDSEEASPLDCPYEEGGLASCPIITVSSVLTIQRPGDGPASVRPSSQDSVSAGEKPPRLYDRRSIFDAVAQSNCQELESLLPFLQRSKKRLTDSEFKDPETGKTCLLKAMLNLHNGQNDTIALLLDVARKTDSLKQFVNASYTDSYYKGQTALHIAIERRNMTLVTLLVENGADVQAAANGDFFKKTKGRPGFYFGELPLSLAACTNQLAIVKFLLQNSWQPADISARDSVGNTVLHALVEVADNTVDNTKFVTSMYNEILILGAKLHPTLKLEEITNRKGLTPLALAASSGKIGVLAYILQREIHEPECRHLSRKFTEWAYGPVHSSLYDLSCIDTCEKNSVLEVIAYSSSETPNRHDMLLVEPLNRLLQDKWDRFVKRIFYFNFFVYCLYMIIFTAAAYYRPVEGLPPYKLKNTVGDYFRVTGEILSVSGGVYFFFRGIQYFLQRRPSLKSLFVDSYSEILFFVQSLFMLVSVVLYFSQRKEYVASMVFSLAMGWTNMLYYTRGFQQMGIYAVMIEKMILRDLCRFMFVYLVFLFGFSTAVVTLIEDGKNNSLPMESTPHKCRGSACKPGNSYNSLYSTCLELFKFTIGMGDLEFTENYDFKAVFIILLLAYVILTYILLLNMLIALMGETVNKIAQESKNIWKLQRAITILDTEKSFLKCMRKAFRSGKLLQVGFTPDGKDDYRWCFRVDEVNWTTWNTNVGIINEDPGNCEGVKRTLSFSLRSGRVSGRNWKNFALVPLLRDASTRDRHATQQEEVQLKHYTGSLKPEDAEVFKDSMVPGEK

Structure (SMILES)	pIC50 [1]	pIC50 [2]	pIC50 [3]	Ratio IC50 [4]	pIC50 [5]	Ratio IC50 [6]
N#Cc1ccc(O[C@@H]2c3ccccc3C[C@H]2N2CCC[C@@H](N)C2)c(Cl)c1	< 5.00					
Clc1ccc(Cn2c(CN3CCCC3)nc3ccccc32)cc1 [CLEMIZOLE]		< 4.70	5.19	10	< 4.70	10

Source: ChEMBL document CHEMBL4376804, “Review of Transient Receptor Potential Canonical (TRPC5) Channel Modulators and Diseases” (J Med Chem, 2019)
